Like-named read-outs stand apart in the source and are kept apart here.
Key:
Format in all cases: cell-based, HCV
genotype 1a H77 replicon = test: microbe, parasite or virus in culture; settings: Hepatitis C virus
Method: (§1) Evaluation of cell-based anti-HCV activity: Antiviral potency (EC50) was determined using a Renilla luciferase (RLuc)-based HCV replicon reporter assay. […] To perform the assay for genotype 2a (with M31 present in NS5A) or 2b, NS5A chimeric genotype 2a JFH-1 replicons that encodes a RLuc-Neo reporter and either genotype 2a J6 strain NS5A gene or genotype 2b MD2b-1 strain NS5A gene (both with M31 present) respectively, were either transiently transfected (t) into Huh-Lunet cells or were established as stably replicating replicon cells (s) is provided. Either cells were dispensed into 384-well plates for EC50 assays. To perform the assay for genotype 3 and 4, NS5A chimeric genotype 1b Con1 replicons that encodes a Pi-RLuc reporter and either genotype 3a S52 strain NS5A gene or genotype 4a ED43 strain NS5A gene respectively, were transiently transfected (t) into Huh-Lunet cells, which were subsequently dispensed into 384-well plates. Compounds were dissolved in DMSO at a concentration of 10 mM and diluted in DMSO either manually or using an automated pipeting instrument. Serially 3-fold diluted compounds were either manually mixed with cell culture media and added to the seeded cells or directly added to the cells using an automated instrument. […] 72 hours later, cells were lysed and Renilla luciferase activity quantified as recommended by the manufacturer (Promega-Madison, Wis.). Non-linear regression was performed to calculate EC50 values.

[1] = test system: genotype 2a JFH-1 replicon (L31 present in NS5A); test: microbe, parasite or virus in culture; settings: Hepatitis C virus, read-out: 2a JFH (nM)
Method: as §1

[2] = test system: genotype 2b MD2b-1 strain NS5A gene (M31 present); test: microbe, parasite or virus in culture; settings: Hepatitis C virus
Method: as §1

[3] = test system: genotype 2a J6 strain NS5A gene (M31 present); test: Replicon assay, NS5A chimeric 2a JFH-1 replicon with 2a J6 NS5A, transient (t) or stable (s), Huh-Lunet cells; settings: Hepatitis C virus
Method: as §1

[4] = test system: genotype 3a S52 strain NS5A gene; test: Replicon assay, NS5A chimeric 1b Con1 replicon with 3a NS5A, transiently transfected Huh-Lunet cells; settings: Hepatitis C virus
Method: as §1

Q30R in genotype 1a NS5A = test: Antiviral potency against resistance mutant, 1a Pi-Rluc replicon in Huh-7-derived cured-51 cells; settings: Hepatitis C virus
Method: as §1
To determine the antiviral potency (EC50) against resistance mutants, resistance mutations, including M28T, Q30R, Q30H, L31M, and Y93C in genotype 1a NS5A and Y93H in genotype 1b NS5A, were introduced individually into either 1a Pi-Rluc or 1b Pi-Rluc replicons by site directed mutagenesis. Replicon RNA of each resistant mutant was transiently transfected into Huh-7-derived cured-51 cells and antiviral potency was determined on these transfected cells as described above.

[5] = test system: genotype 2a JFH-1 replicon (L31 present in NS5A); test: microbe, parasite or virus in culture; settings: Hepatitis C virus, read-out: 2a JFH
[6] = test system: genotype 4a ED43 strain NS5A gene; test: Replicon assay, NS5A chimeric 1b Con1 replicon with 4a NS5A, transiently transfected Huh-Lunet cells; settings: Hepatitis C virus
Method: as §1, with “[…],” for “were transiently transfected (t) into Huh-Lunet cells,”

Compound: COC[C@H]1CC(c2ncc(-c3ccc4c(c3)COc3cc5c(ccc6nc([C@@H]7CC[C@H](C)N7C(=O)[C@@H](NC(=O)OC)C(C)C)[nH]c65)cc3-4)[nH]2)N(C(=O)[C@@H](NC(=O)OC)C(C)OC)C1 (stereo in doubt) [Example QA, Methyl {(2S)-1-[(2S,5S)-2-(9-{2-[(2S,4S)-1-{(2S,3S)-3-methoxy-2-[(methoxycarbonyl)amino]butanoyl}-4-(methoxymethyl)pyrrolidin-2-yl]-1H-imidazol-5-yl}-1,11-dihydroisochromeno[4′,3′:6,7]naphtho[1,2-d]imidazol-2-yl)-5-methylpyrrolidin-1-yl]-3-methyl-1-oxobutan-2-yl}carbamate]
- EC50 (genotype 1a H77 replicon; read-out: 1a): < 1 nM
- EC50 [1]: 0.007 nM
- EC50 ([2]; read-out: 2b): < 1 nM
- EC50 ([2]; read-out: 2b (s) (nM)): 0.04 nM
- EC50 ([3]; read-out: 2a J6): < 1 nM
- EC50 ([4]; read-out: 3a): < 1 nM
- EC50 (Q30R in genotype 1a NS5A; read-out: 1a Q30R): < 1 nM
- EC50 [5]: < 1 nM

Compound: CCC(C)[C@H](NC(=O)OC)C(=O)N1C[C@@H](C)CC1c1ncc(-c2ccc3c(c2)COc2cc4c(ccc5nc([C@@H]6C[C@H](COC)CN6C(=O)[C@@H](NC(=O)OC)C(C)C)[nH]c54)cc2-3)[nH]1 (stereo in doubt) [Example QC, Methyl {(2S)-1-[(2S,4S)-2-(9-{2-[(2S,4S)-1-{(2S,3R)-2-[(methoxycarbonyl)amino]-3-methylpentanoyl}-4-methylpyrrolidin-2-yl]-1H-imidazol-5-yl}-1,11-dihydroisochromeno[4′,3′:6,7]naphtho[1,2-d]imidazol-2-yl)-4-(methoxymethyl)pyrrolidin-1-yl]-3-methyl-1-oxobutan-2-yl}carbamate]
- EC50 (genotype 1a H77 replicon; read-out: 1a): < 1 nM
- EC50 [1]: 0.008 nM
- EC50 ([2]; read-out: 2b): < 1 nM
- EC50 ([3]; read-out: 2a J6): < 1 nM
- EC50 [5]: < 1 nM

Compound: COC(=O)N[C@H](C(=O)N1CCC[C@H]1c1nc2c(ccc3cc4c(cc32)OCc2cc(-c3cnc([C@@H]5CCCN5C(=O)[C@H](NC(=O)OC)c5ccccc5)[nH]3)ccc2-4)[nH]1)C(C)C [Example MD]
- EC50 (genotype 1a H77 replicon; read-out: 1a): < 1 nM
- EC50 [1]: 0.006 nM
- EC50 ([2]; read-out: 2b): < 1 nM
- EC50 ([3]; read-out: 2a J6): < 1 nM
- EC50 ([4]; read-out: 3a): < 1 nM
- EC50 ([4]; read-out: 3a (nM)): 0.006 nM
- EC50 ([6]; read-out: 4a): < 1 nM
- EC50 (Q30R in genotype 1a NS5A; read-out: 1a Q30R): < 1 nM
- EC50 [5]: < 1 nM

Compound: COC(=O)N[C@H](C(=O)N1CCC[C@H]1c1nc2c([nH]1)CCc1cc3c(cc1-2)OCc1cc(-c2cnc([C@@H]4CCCN4C(=O)[C@H](NC(=O)OC)c4ccccc4)[nH]2)ccc1-3)C(C)C [Example MF, methyl [1-(2-{5-[2-(1-{[(methoxycarbonyl)amino]-3-methyl-1-oxobutan-2-yl}pyrrolidin-2-yl)-1,4,5,11-tetrahydroisochromeno[4′,3′:6,7]naphtho[1,2-d]imidazol-9-yl]-1H-imidazol-2-yl}pyrrolidin-1-yl)-phenyl-1-oxoacet-2-yl]carbamate]
- EC50 (genotype 1a H77 replicon; read-out: 1a): < 1 nM
- EC50 ([2]; read-out: 2b): < 1 nM
- EC50 ([3]; read-out: 2a J6): < 1 nM
- EC50 ([4]; read-out: 3a): < 1 nM
- EC50 ([6]; read-out: 4a): < 1 nM
- EC50 (Q30R in genotype 1a NS5A; read-out: 1a Q30R): < 1 nM
- EC50 [5]: < 1 nM

Compound: COC(=O)N[C@H](C(=O)N1CCC[C@H]1c1ncc(-c2ccc3c(c2)COc2cc4c(cc2-3)CCc2[nH]c([C@@H]3CCCN3C(=O)[C@H](NC(=O)OC)c3ccccc3)nc2-4)[nH]1)C(C)C [Example MG]
- EC50 (genotype 1a H77 replicon; read-out: 1a): < 1 nM
- EC50 ([2]; read-out: 2b): < 1 nM
- EC50 ([2]; read-out: 2b (s) (nM)): 0.07 nM
- EC50 ([3]; read-out: 2a J6): < 1 nM
- EC50 ([4]; read-out: 3a): < 1 nM
- EC50 ([4]; read-out: 3a (nM)): 0.01 nM
- EC50 ([6]; read-out: 4a): < 1 nM
- EC50 ([6]; read-out: 4a (s) (nM)): 0.08 nM
- EC50 (Q30R in genotype 1a NS5A; read-out: 1a Q30R): < 1 nM
- EC50 [5]: < 1 nM

Compound: COC[C@H]1C[C@@H](c2nc3ccc4cc5c(cc4c3[nH]2)OCc2cc(-c3cnc([C@@H]4CCCN4C(=O)[C@H](NC(=O)OC)c4ccccc4)[nH]3)ccc2-5)N(C(=O)[C@@H](NC(=O)OC)C(C)OC)C1 (stereo partly drawn) [Example OU, Methyl {(1R)-2-[(2S)-2-(5-{2-[(2S,4S)-1-{(2S)-2-[(methoxycarbonyl)amino]-3-methoxybutanoyl}-4-(methoxymethyl)pyrrolidin-2-yl]-1,11-dihydroisochromeno[4′,3′:6,7]naphtho[1,2-d]imidazol-9-yl}-1H-imidazol-2-yl)pyrrolidin-1-yl]-2-oxo-1-phenylethyl}carbamate]
- EC50 (genotype 1a H77 replicon; read-out: 1a): < 1 nM
- EC50 ([2]; read-out: 2b): < 1 nM
- EC50 [5]: < 1 nM

Compound: COC[C@H]1C[C@@H](c2ncc(-c3ccc4c(c3)COc3cc5c(ccc6nc([C@@H]7CCCN7C(=O)[C@H](NC(=O)OC)c7ccccc7)[nH]c65)cc3-4)[nH]2)N(C(=O)[C@@H](NC(=O)OC)C(C)C)C1 [Example PH, methyl {(2S)-1-[(2S,4S)-2-(5-{2-[(2S)-1-{(2R)-2-[(methoxycarbonyl)amino]-2-phenylacetyl}pyrrolidin-2-yl]-1,11-dihydroisochromeno[4′,3′:6,7]naphtho[1,2-d]imidazol-9-yl}-1H-imidazol-2-yl)-4-(methoxymethyl)pyrrolidin-1-yl]-3-methyl-1-oxobutan-2-yl}carbamate]
- EC50 (genotype 1a H77 replicon; read-out: 1a): < 1 nM
- EC50 (genotype 1a H77 replicon; read-out: 1a (nM)): 0.024 nM
- EC50 [1]: 0.014 nM
- EC50 ([2]; read-out: 2b): < 1 nM
- EC50 ([2]; read-out: 2b (t) (nM)): 0.042 nM
- EC50 ([3]; read-out: 2a J6): < 1 nM
- EC50 ([3]; read-out: 2a J6 (t) (nM)): 0.055 nM
- EC50 ([4]; read-out: 3a): < 1 nM
- EC50 ([4]; read-out: 3a (nM)): 0.029 nM
- EC50 (Q30R in genotype 1a NS5A; read-out: 1a Q30R): < 1 nM
- EC50 (Q30R in genotype 1a NS5A; read-out: 1a Q30R (nM)): 0.051 nM
- EC50 [5]: < 1 nM

Compound: CC[C@@H](C)[C@H](NC(=O)OC)C(=O)N1C[C@@H](C)C[C@H]1c1ncc(-c2ccc3c(c2)COc2cc4c(ccc5nc([C@@H]6C[C@H](COC)CN6C(=O)[C@H](NC(=O)OC)c6ccccc6)[nH]c54)cc2-3)[nH]1 [Example QB, Methyl {(1R)-2-[(2S,4S)-2-(9-{2-[(2S,4S)-1-{(2S,3R)-2-[(methoxycarbonyl)amino]-3-methylpentanoyl}-4-methylpyrrolidin-2-yl]-1H-imidazol-5-yl}-1,11-dihydroisochromeno[4′,3′:6,7]naphtho[1,2-d]imidazol-2-yl)-4-(methoxymethyl)pyrrolidin-1-yl]-2-oxo-1-phenylethyl}carbamate]
- EC50 (genotype 1a H77 replicon; read-out: 1a): < 1 nM
- EC50 [1]: 0.008 nM
- EC50 ([2]; read-out: 2b): < 1 nM
- EC50 ([3]; read-out: 2a J6): < 1 nM
- EC50 ([4]; read-out: 3a): < 1 nM
- EC50 (Q30R in genotype 1a NS5A; read-out: 1a Q30R): < 1 nM
- EC50 [5]: < 1 nM

Compound: CC[C@@H](C)C(NC(=O)OC)C(=O)N1C[C@@H](COC)C[C@H]1c1nc2ccc3cc4c(cc3c2[nH]1)OCc1cc(-c2cnc([C@@H]3C[C@H](C)CN3C(=O)[C@@H](NC(=O)OC)[C@H](C)CC)[nH]2)ccc1-4 (stereo partly drawn) [Example QE, Methyl {(3R)-1-[(2S,4S)-2-(9-{2-[(2S,4S)-1-{(2S,3R)-2-[(methoxycarbonyl)amino]-3-methylpentanoyl}-4-methylpyrrolidin-2-yl]-1H-imidazol-5-yl}-1,11-dihydroisochromeno[4′,3′:6,7]naphtho[1,2-d]imidazol-2-yl)-4-(methoxymethyl)pyrrolidin-1-yl]-3-methyl-1-oxopentan-2-yl}carbamate]
- EC50 (genotype 1a H77 replicon; read-out: 1a): < 1 nM
- EC50 ([2]; read-out: 2b): < 1 nM
- EC50 ([3]; read-out: 2a J6): < 1 nM
- EC50 [5]: < 1 nM
